In brackets after ≈: the same amount, converted by molar mass. Several values for one entry are separate records, joined by “and”; a condition that tells them apart may be missing. Identical values can stand only once. Like-named read-outs stand apart in the source and are kept apart here.
Tests used:
in vitro = settings: African green monkey
M. tuberculosis 103471 = assay: Antimycobacterial activity, twofold agar dilution MIC; type: cell-based; settings: for M. tuberculosis 103471 MIC: Middlebrook 7H11 agar; for MIC: Mycobacterium tuberculosis, 103471, Middlebrook 7H11 agar
Procedure: (§1) Compounds 3a-h were preliminarily assayed against two freshly isolated clinical strains, M. fortuitum CA10 and M. tuberculosis B814, according to the dilution method in agar (Hawkins et al., 1991).
(§2) Growth media were Mueller-Hinton (Difco) containing 10% of OADC (oleic acid, albumine and dextrose complex) for M. fortuitum and Middlebrook 7H11 agar (Difco) with 10% of OADC for M. tuberculosis. Substances were tested at the single dose of 100 μg/mL. The active compounds were then assayed for inhibitory activity against a variety of mycobacterium strains in Middlebrok 7H11 agar by a standard twofold agar dilution method. The mycobacterium species used for biological tests were M. tuberculosis […], M. tuberculosis H37Rv, M. tuberculosis INH-R ATCC, M. tuberculosis RMP-R ATCC and, among atypical mycobacteria, M. smegmatis 103599, M. marinum 6423 and M. avium 103317 (from the Institute Pasteur collection). Plates were incubated at 37° C. for 3 or 28 days. BM212, INH, SM and RIF were used as reference compounds. After cultivation, MICs were read as minimal concentrations of drugs completely inhibiting visible growth of mycobacteria.

[1] = test system: intracellular M. tuberculosis; assay: Inhibitory activity on intramacrophagic mycobacteria (J774.A1 murine macrophages); type: cell-based; settings: after 6 days of treatment
M. smegmatis 103599 = assay: Antimycobacterial activity, agar dilution MIC; type: cell-based
M. marinum 6423 = assay: Antimycobacterial activity, agar dilution MIC; type: cell-based
M. avium 103317 = assay: Antimycobacterial activity, agar dilution MIC; type: cell-based
atypical mycobacteria = assay: Antimycobacterial activity toward atypical mycobacteria; type: cell-based; settings: M. avium, M. marinum, M. smegmatis together
Procedure: as §2

M. tuberculosis H37Rv = assay: Antimycobacterial activity, twofold agar dilution MIC; type: cell-based; settings: Middlebrook 7H11 agar; for MIC: Mycobacterium tuberculosis, H37RV
Procedure: as §1, §2

Vero cells = settings: MTT after 72 h
[2] = Mycolicibacterium smegmatis, 103599; read-out: M. smegmatis 103599 MIC
[3] = Mycobacterium marinum, 6423; read-out: M. marinum 6423 MIC
[4] = Mycobacterium avium, 103317; Table 7 head prints strain 103471; read-out: M. avium 103471 MIC
[5] = Mycobacterium avium, 103317; read-out: M. avium 103317 MIC
[6] = Table 7 head prints strain 103471

| SMILES | CC50 (in vitro) | M. tuberculosis 103471 MIC (M. tuberculosis 103471) | MIC (M. tuberculosis 103471) | MIC (M. smegmatis 103599; [2]) | MIC (M. marinum 6423; [3]) | MIC (M. avium 103317; [4]) | MIC (M. avium 103317; [5]) | MIC (M. tuberculosis H37Rv) | M. tuberculosis H37Rv MIC (M. tuberculosis H37Rv) | M. avium 103471 MIC (M. avium 103317; [6]) | CC50 VERO cells (Vero cells) | further results |
| --- | --- | --- | --- | --- | --- | --- | --- | --- | --- | --- | --- | --- |
| Cc1c(CN2CCN(C)CC2)cc(-c2ccc(Cl)cc2)n1-c1ccc(Cl)cc1 [BM 212, 1-{[1,5-bis(4-chlorophenyl)-2-methyl-1H-pyrrol-3-yl]methyl}-4-methylpiperazine] | 4 µg/mL (≈ 9.65 µM) | 0.7 µg/mL | 0.7 µg/mL (≈ 1.69 µM) | 25 µg/mL (≈ 60.3 µM) | 100 µg/mL (≈ 241 µM) | 0.4 µg/mL (≈ 0.965 µM) | 0.4 µg/mL (≈ 0.965 µM) | – | – | – | – | % of growth reduction respect to untreated controls, intracellular M. tuberculosis ([1]; concentration 0.125 μg/ml): 0%; % of growth reduction respect to untreated controls, intracellular M. tuberculosis ([1]; concentration 0.25 μg/ml): 29.41%; % of growth reduction respect to untreated controls, intracellular M. tuberculosis ([1]; concentration 0.5 μg/ml): 32.35%; % of growth reduction respect to untreated controls, intracellular M. tuberculosis ([1]; concentration 1 μg/ml): 51.76% |
| CSc1ccc(-c2cc(CN3CCSCC3)c(C)n2-c2ccc(F)cc2)cc1 [Compound 3a, N-(4-fluorophenyl)-2-methyl-3-thiomorpholinomethyl-5-(4-methylsulfanylphenyl)pyrrole] | > 128 µg/mL | 0.125 µg/mL and <0.125 µg/mL | < 0.125 µg/mL | 16 µg/mL (≈ 38.8 µM) | 8 µg/mL (≈ 19.4 µM) | 8 µg/mL (≈ 19.4 µM) | 8 µg/mL (≈ 19.4 µM) | 0.125 µg/mL (≈ 0.303 µM) | – | – | – | activity toward atypical mycobacteria (MIC range) (atypical mycobacteria): 8 to 16 µg/mL; % of growth reduction respect to untreated controls, intracellular M. tuberculosis ([1]; concentration 0.125 μg/ml): 96.12%; % of growth reduction respect to untreated controls, intracellular M. tuberculosis ([1]; concentration 0.25 μg/ml): 99.02%; % of growth reduction respect to untreated controls, intracellular M. tuberculosis ([1]; concentration 0.5 μg/ml): 99.72%; % of growth reduction respect to untreated controls, intracellular M. tuberculosis ([1]; concentration 1 μg/ml): 99.81% |
| CSc1ccc(-c2cc(CN3CCSCC3)c(C)n2-c2ccc(C)cc2)cc1 [Compound 3b] | – | 0.25 µg/mL | – | – | – | – | – | – | 0.25 µg/mL | 16 µg/mL | 18.40 µg/mL (≈ 45 µM) | – |
| CCc1ccc(-n2c(-c3ccc(SC)cc3)cc(CN3CCSCC3)c2C)cc1 [Compound 3c] | – | 0.25 µg/mL | – | – | – | – | – | – | 0.25 µg/mL | >16 µg/mL | 17.18 µg/mL (≈ 40.6 µM) | – |
| CCCc1ccc(-n2c(-c3ccc(SC)cc3)cc(CN3CCSCC3)c2C)cc1 [Compound 3d] | – | 0.125 µg/mL | – | – | – | – | – | – | 0.5 µg/mL | 8 µg/mL | 25.25 µg/mL (≈ 57.8 µM) | – |
| CSc1ccc(-c2cc(CN3CCSCC3)c(C)n2-c2ccc(C(C)C)cc2)cc1 [Compound 3e] | – | 0.125 µg/mL | – | – | – | – | – | – | 0.5 µg/mL | 8 µg/mL | 37.58 µg/mL (≈ 86.1 µM) | – |
| CSc1ccc(-c2cc(CN3CCN(C)CC3)c(C)n2-c2ccc(F)cc2)cc1 [Compound 3f] | – | 2 µg/mL | – | – | – | – | – | – | 2 µg/mL | 4 µg/mL | 9.33 µg/mL (≈ 22.8 µM) | – |
| CSc1ccc(-c2cc(CN3CCCCC3)c(C)n2-c2ccc(F)cc2)cc1 [Compound 3g] | – | 8 µg/mL | – | – | – | – | – | – | – | – | – | – |
| CSc1ccc(-c2cc(CN3CCOCC3)c(C)n2-c2ccc(F)cc2)cc1 [Compound 3h] | – | 0.25 µg/mL | – | – | – | – | – | – | 0.5 µg/mL | 16 µg/mL | 44.34 µg/mL (≈ 112 µM) | – |
| NNC(=O)c1ccncc1 [Isoniazid, INH, Isoniazid, reference compound] | 32 µg/mL (≈ 233 µM) | – | 0.125 µg/mL (≈ 0.911 µM) | – | – | – | – | 0.25 µg/mL (≈ 1.82 µM) | – | – | – | MIC (M. smegmatis 103599; Mycolicibacterium smegmatis, 103599, read-out: M. smegmatis 103599 MIC): 64 µg/mL (≈ 467 µM); MIC (M. marinum 6423; Mycobacterium marinum, 6423, read-out: M. marinum 6423 MIC): 16 µg/mL (≈ 117 µM); MIC (M. avium 103317; Mycobacterium avium, 103317, read-out: M. avium 103317 MIC): 32 µg/mL (≈ 233 µM); MIC (M. avium 103317; Mycobacterium avium, 103317, read-out: M. avium 103471 MIC): 32 µg/mL (≈ 233 µM) |
| CO[C@H]1/C=C/O[C@@]2(C)Oc3c(C)c(O)c4c(O)c(c(/C=N/N5CCN(C)CC5)c(O)c4c3C2=O)NC(=O)/C(C)=C\C=C\[C@H](C)[C@H](O)[C@@H](C)[C@@H](O)[C@@H](C)[C@H](OC(C)=O)[C@@H]1C [Rifampicin, RIF, Rifampicin] | > 64 µg/mL | – | 0.25 µg/mL (≈ 0.304 µM) | 32 µg/mL (≈ 38.9 µM) | 0.6 µg/mL (≈ 0.729 µM) | 0.3 µg/mL (≈ 0.365 µM) | 0.3 µg/mL (≈ 0.365 µM) | 0.8 µg/mL (≈ 0.972 µM) | – | – | – | % of growth reduction respect to untreated controls, intracellular M. tuberculosis ([1]; concentration 0.125 μg/ml): 96.59%; % of growth reduction respect to untreated controls, intracellular M. tuberculosis ([1]; concentration 0.25 μg/ml): 99.83%; % of growth reduction respect to untreated controls, intracellular M. tuberculosis ([1]; concentration 0.5 μg/ml): 99.93%; % of growth reduction respect to untreated controls, intracellular M. tuberculosis ([1]; concentration 1 μg/ml): 99.97% |
| [H]/N=C(/N)N[C@H]1[C@H](O)[C@@H](O)[C@H](O[C@@H]2O[C@@H](C)[C@](O)(C=O)[C@H]2O[C@@H]2O[C@@H](CO)[C@H](O)[C@@H](O)[C@@H]2NC)[C@@H](N/C(N)=N\[H])[C@@H]1O [Streptomycin, SM, Streptomycin, reference compound] | 64 µg/mL (≈ 110 µM) | 0.3 µg/mL | 0.3 µg/mL (≈ 0.516 µM) | 8 µg/mL (≈ 13.8 µM) | 32 µg/mL (≈ 55 µM) | 8 µg/mL (≈ 13.8 µM) | 8 µg/mL (≈ 13.8 µM) | 0.5 µg/mL (≈ 0.86 µM) | – | – | – | – |
